Data set [1] can be described thus: Plasma and inner ear fluid exposure after single trans-tympanic injection in lipid-based mucoadhesive solution (Example 3). In kind it is in vivo, male Wistar rats. To be noted: for concentration at 1 h: T0 + 1 hour; for concentration at 24 h: T0 + 24 hours; for High concentrations rapidly reached in the IEF (molar) / High concentrations rapidly reached in the inner ear fluid: trans-tympanic injection; for High concentrations rapidly reached in the IEF (molar): approximate conversion; for High concentrations rapidly reached in the inner ear fluid: summary. The procedure: Composition 7P and composition 7X as described in example 2 were administered to male Wistar rats (5 animals per active agent and timepoint), as described below.
At time T0, 30 μL of composition 7P were administered to 15 rats, in a single ear via trans-tympanic injection. The dose of paliroden fumarate that has been administered is thus of 243 μg in one ear of each rat.
At time T0, 30 μL of composition 7X were administered to 15 other rats, in a single ear via trans-tympanic injection. The dose of xaliproden hydrochloride that has been administered is thus of 181.2 μg in one ear of each rat.
For the 15 rats that have received composition 7P and for the 15 rats that have received composition 7X, plasmatic and inner ear expositions were determined via blood and cochlea terminal sampling in order to achieve lithium-heparin plasma and inner ear fluid preparation, at T+1 hour, T+24 hours and T+168 hours. Bioanalytical methods were validated in both matrices (lithium heparin plasma and inner ear fluid) with a range of 0.2 to 815 ng/mL for paliroden (fumarate salt) and 0.2 to 763 ng/mL for xaliproden (hydrochloride salt).

The nature of data set [2]: Plasma and inner ear fluid exposure after single trans-tympanic injection in thermoreversible hydrogel composition (Example 4). To be noted: for concentration at 7 days / concentration at 168 h / concentration at 1 h / concentration at 24 h: male, Wistar, other: trans-tympanic injection; for concentration at 7 days: inner ear fluid, read-out: Concentrations in the inner ear fluid at 7 days post injection; for concentration at 7 days / High concentrations rapidly reached in the inner ear fluid / High concentrations rapidly reached in the IEF (molar): trans-tympanic injection; for concentration at 1 h: T0 + 1 hour; for concentration at 24 h: T0 + 24 hours; for High concentrations rapidly reached in the inner ear fluid: summary. It is filed as in vivo, male Wistar rats. The procedure:
Composition 4P and composition 4X as described in example 2 were administered to male Wistar rats (5 animals per active agent and timepoint), as described below.
At time T0, 30 μL of composition 4P were administered to 15 rats, in a single ear via trans-tympanic injection. The dose of paliroden fumarate that has been administered is thus of 300 μg in one ear of each rat.
At time T0, 30 μL of composition 4X were administered to 15 other rats, in a single ear via trans-tympanic injection. The dose of xaliproden hydrochloride that has been administered is thus of 150 μg in one ear of each rat.
For the 15 rats that have received composition 4P and for the 15 rats that have received composition 4X, plasmatic and inner ear expositions were determined via blood and cochlea terminal sampling in order to achieve lithium-heparin plasma and inner ear fluid preparation, at T+1 hour, T+24 hours and T+168 hours. Bioanalytical methods were validated in both matrices (lithium heparin plasma and inner ear fluid) with a range of 0.2 to 815 ng/mL for paliroden (fumarate salt) and 0.38 to 763 ng/mL for xaliproden (hydrochloride salt).

The next data set relates to male CBA/CaJ mice. The data set is described as follows: ABR Wave I amplitude after noise-induced temporary hearing loss (Example 8). It is filed as in vivo. As to the method: Twelve male CBA/CaJ mice were selected and evenly distributed to treatment and control groups, each group comprising 4 mice at the end of the study. Randomization was performed using the ABR threshold in the left ear at 16 kHz as a criterium. The “sham” group consists in mice (n=4) that received neither noise exposure nor trans-tympanic injection. The “Traumatized” group consists in mice (n=4) that received noise exposure only. The “traumatized paliroden” group consists in mice (n=4) that received noise exposure and trans-tympanic injections of a composition comprising paliroden (fumarate salt), corresponding to composition 4P described in Example 2.
All animals (except sham group) received a bilateral noise exposure at a noise band of 8-16 kHz at 95 dB SPL RMS during 2 hours (from time T0 to time T0+2 hours) in awake conditions.
Five microliters of a composition comprising paliroden as active agent were administered once in both ears of each mice of the treatment groups (5 μL per ear) via trans-tympanic administration by injection between the eardrum and the round window by means of a needle which crosses the eardrum, 24 hours post noise exposure, under isoflurane anesthesia. […]

[3] abbreviates: male, Wistar, other: trans-tympanic injection, rat inner ear fluid, trans-tympanic 243 μg, read-out: Concentration of paliroden (fumarate salt), IEF, Mean.
[4] abbreviates: male, Wistar, plasma, other: trans-tympanic injection, rat, trans-tympanic 243 μg one ear, read-out: Concentration of paliroden (fumarate salt), Plasma, Mean.
[5] abbreviates: rat inner ear fluid, trans-tympanic 300 μg, thermoreversible hydrogel, read-out: Concentration of paliroden (fumarate salt), IEF, Mean.
The mark [6] stands for this setting: plasma, rat, trans-tympanic 300 μg one ear, suspension in thermoreversible hydrogel, read-out: Concentration of paliroden (fumarate salt), Plasma, Mean.
The mark [7] stands for this setting: rat, suspension in thermoreversible hydrogel.
Where [8] appears, read: rat, thermoreversible hydrogel, approximate conversion.
The mark [9] stands for this setting: male, Wistar, other: trans-tympanic injection, rat inner ear fluid, trans-tympanic 181.2 μg, read-out: Concentration of xaliproden (hydrochloride salt), IEF, Mean.
Setting [10] is: male, Wistar, plasma, other: trans-tympanic injection, rat, trans-tympanic 181.2 μg one ear, read-out: Concentration of xaliproden (hydrochloride salt), Plasma, Mean.
Where [11] appears, read: plasma, 150 μg in one ear, rat, trans-tympanic 150 μg one ear, suspension in thermoreversible hydrogel, read-out: Concentration of xaliproden (hydrochloride salt), Plasma, Mean.

Structures can show the parent of a compound that is named as a salt. Where two headings read alike, the source gives them in different places.

In the case of `FC(F)(F)c1cccc(C2=CCN(CCc3ccc(-c4ccccc4)cc3)CC2)c1` [paliroden (fumarate salt), 1-[2-(4-biphenylyl)ethyl]-4-(3-trifluoromethylphenyl)-1,2,3,6-tetrahydropyridine], the concentration at 1 h in data set [1] (setting [3]) came out at 5100 ng/mL; in data set [1] (setting [4]), 0.9 ng/mL; in data set [2] (setting [5]), 5490 ng/mL; in data set [2] (setting [6]), 1 ng/mL. Besides, the concentration at 24 h is 3.2 ng/mL in data set [1] (setting [3]), 1.7 ng/mL in data set [1] (setting [4]), 1370 ng/mL in data set [2] (setting [5]) and 0.4 ng/mL in data set [2] (setting [6]). Further, the “Concentration of paliroden (fumarate salt), IEF, Mean” value in data set [1] (rat inner ear fluid, trans-tympanic 243 μg, T0 + 168 hours) was “BLQ”. Further, the “Concentration of paliroden (fumarate salt), Plasma, Mean” value in data set [1] (rat, trans-tympanic 243 μg one ear, T0 + 168 hours) is reported as “BLQ”. Moreover, the “High concentrations rapidly reached in the IEF (molar)” value in data set [1] (rat) and in data set [2] (setting [8]) was “approximately 10 μM” in each case. For the same compound, the “High concentrations rapidly reached in the inner ear fluid” value in data set [1] (rat) and in data set [2] (setting [7]) was “approximately 5000 ng/mL” in each case. The concentration at 7 days in data set [2] (300 μg, rat, thermoreversible hydrogel, approximate conversion) was ~1200 nM; in data set [2] (rat, thermoreversible hydrogel) it was ~600 ng/mL. Further, the concentration at 168 h in data set [2] (300 μg in one ear, rat inner ear fluid, trans-tympanic 300 μg, thermoreversible hydrogel, T0 + 168 hours, n = 4, read-out: Concentration of paliroden (fumarate salt), IEF, Mean) was found to be 687 ng/mL; in data set [2] (plasma, 300 μg in one ear, rat, trans-tympanic 300 μg one ear, suspension in thermoreversible hydrogel, T0 + 168 hours, read-out: Concentration of paliroden (fumarate salt), Plasma, Mean), 0.2 ng/mL. Also, the “Recovery of the ABR Wave I amplitudes” value with male CBA/CaJ mice (5 weeks post-noise, 16, 25, 32, 40, 45 kHz, paliroden 50 μg/ear one day post-noise) is on record as “complete recovery”. In addition, the “ABR Wave I amplitude recovery in comparison to traumatized untreated mice, subset analysis” value with male CBA/CaJ mice (25, 32, 40 and 45 kHz, p values <0.001) was “statistically significant”.

Take `FC(F)(F)c1cccc(C2=CCN(CCc3ccc4ccccc4c3)CC2)c1` [xaliproden (hydrochloride salt), 1-[2-(2-naphthyl)ethyl]-4-(3-trifluoromethylphenyl)-1,2,3,6-tetrahydropyridine]: the concentration at 1 h was determined as 2510 ng/mL in data set [1] (setting [9]); 4.4 ng/mL in data set [1] (setting [10]); 5610 ng/mL in data set [2] (150 μg in one ear, rat inner ear fluid, trans-tympanic 150 μg, thermoreversible hydrogel, n = 4, read-out: Concentration of xaliproden (hydrochloride salt), IEF, Mean); 4.9 ng/mL in data set [2] (setting [11]). The concentration at 24 h was found to be 74.3 ng/mL in data set [1] (setting [9]); 5.2 ng/mL in data set [1] (setting [10]); 108 ng/mL in data set [2] (150 μg in one ear, rat inner ear fluid, trans-tympanic 150 μg, thermoreversible hydrogel, read-out: Concentration of xaliproden (hydrochloride salt), IEF, Mean); 9.2 ng/mL in data set [2] (setting [11]). Also, the concentration at 168 h in data set [1] (male, Wistar, plasma, other: trans-tympanic injection, rat, trans-tympanic 181.2 μg one ear, T0 + 168 hours, read-out: Concentration of xaliproden (hydrochloride salt), Plasma, Mean) was 0.5 ng/mL; in data set [2] (150 μg in one ear, rat inner ear fluid, trans-tympanic 150 μg, thermoreversible hydrogel, T0 + 168 hours, read-out: Concentration of xaliproden (hydrochloride salt), IEF, Mean), 117 ng/mL. In addition, in data set [1] (rat inner ear fluid, trans-tympanic 181.2 μg, T0 + 168 hours), the “Concentration of xaliproden (hydrochloride salt), IEF, Mean” value was “BLQ”. The “High concentrations rapidly reached in the IEF (molar)” value in data set [1] (rat) is ~5 µM; in data set [2] (setting [8]), “approximately 10 μM”. The “High concentrations rapidly reached in the inner ear fluid” value in data set [1] (rat) is ~2500 ng/mL; in data set [2] (setting [7]), “approximately 5000 ng/mL”. Also, the concentration at 7 days in data set [2] (rat, thermoreversible hydrogel) is ~100 ng/mL. For the same compound, the “Concentration of xaliproden (hydrochloride salt), Plasma, Mean” value in data set [2] (rat, trans-tympanic 150 μg one ear, suspension in thermoreversible hydrogel, T0 + 168 hours) is recorded as “BLQ”.
